The source of these data is patent US20090008238A1, “TRANSPORTABLE GAS STERILIZATION UNIT, DISPOSABLE GAS GENERATOR, LIGHT ACTIVATED ANTI-INFECTIVE COATING AND METHOD OF DISINFECTION AND STERILIZATION USING CHLORINE DIOXIDE” (THE ARIZONA BD OF REG ON BEHALF OF THE UNIV OF AZ, priority 2004, published 2009).

“And” between values parts separate entries of the source, which are not always exact repeats. Equal entries are not always repeated.

One series relates to E. coli. Conditions: 2.5 minute exposure; cited from earlier work.
The test system of a further series is S. aureus. Conditions: 2.5 minute exposure; cited from earlier work.
Another series has as its system MRSA. The following applies: 2.5 minute exposure; cited from earlier work.
The subject of another series is B. subtilis (spore). The following applies: 2.5 minute exposure; cited from earlier work.
The test system of a further series is A. niger. Conditions: 2.5 minute exposure; cited from earlier work.
Series [1] deals with Bacillus subtilis var. niger spores. Put plainly: sporicidal effects of gas phase ClO2 on inoculated washers. The class given is cell-based. Details: key to Sterility (Day 14): Yes indicates no turbidity was observed, sample is sterile.; No indicates turbidity observed, sample is not sterile. Conditions: 4 hours; for Log Reduction: versus average of 2D and 2E. The procedure: Sterile washers were inoculated with 1.4×10^7 Bacillus subtilis var. niger spores and allowed to dry overnight. Solutions were prepared in sterile jars to obtain different chlorine dioxide levels. Five washers were suspended in each jar and exposed to one chlorine dioxide concentration for 4 hours in the dark. Two washers from each chlorine dioxide level were enumerated for log reduction and three washers from each chlorine dioxide concentration were analyzed for sterility. Log reduction samples were analyzed by placing one washer into 10 ml sterile Difco DE Neutralizing Broth, shaking for approximately 30 seconds and spread plating, in duplicate, onto Difco Trypticase Soy agar plates incubated at 35° C. for 48 hours. Sterility was determined by placing one washer in 50 ml sterile Difco Trypticase Soy Broth incubated at 35° C. for 14 days and visually checked daily for turbidity. Appropriate positive and negative controls were run with test samples.

Another series deals with Simian, Rotavirus SA11. The following applies: pH 10; cited from earlier work.
For series [2] the following is noted: low concentrations (20 mg/L) of gas; cited from earlier work.
The conditions of series [3]: relative to hypochlorite; cited from earlier work.
For series [4] the following is noted: drank solution, up to a concentration of 24 ppm; cited from earlier work.
For series [5] the following is noted: concentrations up to 100 ppm, in drinking, as well as via the skin route; cited from earlier work.
The subject of a further series is red blood cell. The following applies: cited from earlier work.

For `O=CCCCC=O` [GA, Glutaraldehyde], in the series with E. coli, the “minimum bactericidal concentration, E. coli” value is listed as 100,000 ppm. Moreover, in the series on S. aureus, the “minimum bactericidal concentration, S. aureus” value is reported as 100,000 ppm. Moreover, in the series with MRSA, the “minimum bactericidal concentration, MRSA” value is 100,000 ppm. In addition, the “minimum bactericidal concentration, B. subtilis (spore)” value with B. subtilis (spore) is listed as 100,000 ppm. In the series on A. niger, the “minimum bactericidal concentration, A. niger” value is recorded as 100,000 ppm.

As for `OCl` [SH, Sodium hypochlorite], in the series on E. coli, the “minimum bactericidal concentration, E. coli” value is on record as 10 ppm. Besides, in the series with S. aureus, the “minimum bactericidal concentration, S. aureus” value was 10 ppm. In addition, the “minimum bactericidal concentration, MRSA” value with MRSA is 10 ppm. Moreover, the “minimum bactericidal concentration, B. subtilis (spore)” value with B. subtilis (spore) is >1,000 ppm. Also, the “minimum bactericidal concentration, A. niger” value in the series with A. niger was 1,000 ppm.

With `[O][Cl+][O-]` [Chlorine Dioxide], the “CFU/ml Recovered Bacillus subtilis var. niger” value in series [1] (50 ppm gas phase) was 50,000 CFU/ml and 73,000 CFU/ml; in series [1] (200 ppm gas phase), less than 1 CFU/ml; in [1] (300 ppm gas phase), less than 1 CFU/ml; in series [1] (400 ppm gas phase), less than 1 CFU/ml. Besides, the “Sterility (Day 14)” value is given as “No” in [1] (50 ppm gas phase); “Yes” in series [1] (100 ppm gas phase); “Yes” in series [1] (200 ppm gas phase); “Yes” in [1] (300 ppm gas phase); “Yes” in series [1] (400 ppm gas phase). In addition, the “Log Reduction” value in [1] (50 ppm gas phase) is 2.30 and 2.13; in series [1] (100 ppm gas phase) it was greater than 6; in series [1] (200 ppm gas phase), greater than 6.99; in [1] (300 ppm gas phase), greater than 6.99; in series [1] (400 ppm gas phase), greater than 6.99. For the same molecule, in the series with E. coli, the “minimum bactericidal concentration, E. coli” value is given as 1 ppm. The “minimum bactericidal concentration, S. aureus” value in the series on S. aureus is 1 ppm. In addition, in the series with MRSA, the “minimum bactericidal concentration, MRSA” value is reported as 1 ppm. Further, the “minimum bactericidal concentration, B. subtilis (spore)” value in the series with B. subtilis (spore) is 100 ppm. The “minimum bactericidal concentration, A. niger” value with A. niger is on record as 10 ppm. The “time to good antiviral activity” value with Simian, Rotavirus SA11 was “less than 15 seconds”. Moreover, the sterilant effectiveness result in series [2] is “effective sterilant”. The “half-life for the elimination from the plasma” value in series [3] is given as “less than half that of hypochlorite”. In series [4], the “adverse effects in human volunteers” value is reported as “no adverse effects”. The “fetal malformation or birth defects” value in [5] is “no evidence of fetal malformation or birth defects”. Besides, the hematological changes entry in the series on red blood cell (rats fed up to 1000 mg/l chronically for 6 months) is given as “no significant hematological changes”. For the same molecule, in the series on red blood cell (rats, after 9 months, all treatment groups), the “red blood cell counts, hematocrit and hemoglobin” value is recorded as “decreased”.

Providone iodine [PVP-I]: in the series on E. coli, the “minimum bactericidal concentration, E. coli” value is listed as 10 ppm. Also, the “minimum bactericidal concentration, S. aureus” value in the series on S. aureus is reported as 100 ppm. For the same molecule, the “minimum bactericidal concentration, MRSA” value with MRSA is recorded as 100 ppm. Also, the “minimum bactericidal concentration, B. subtilis (spore)” value with B. subtilis (spore) was >1,000 ppm. Besides, in the series on A. niger, the “minimum bactericidal concentration, A. niger” value was 1,000 ppm.

Regarding Benzalkonium chloride [BAC], the “minimum bactericidal concentration, E. coli” value in the series with E. coli is 100 ppm. Further, the “minimum bactericidal concentration, S. aureus” value in the series with S. aureus is 10 ppm. Also, the “minimum bactericidal concentration, MRSA” value with MRSA is 100 ppm. Further, the “minimum bactericidal concentration, B. subtilis (spore)” value in the series on B. subtilis (spore) is 1,000 ppm. The “minimum bactericidal concentration, A. niger” value in the series with A. niger is 10,000 ppm.

In the case of `N=C(NCCCCCCNC(=N)NC(=N)Nc1ccc(Cl)cc1)NC(=N)Nc1ccc(Cl)cc1.O=C(O)[C@H](O)[C@@H](O)[C@H](O)[C@H](O)CO.O=C(O)[C@H](O)[C@@H](O)[C@H](O)[C@H](O)CO` [CHG, Chlorhexidine digluconate], the “minimum bactericidal concentration, E. coli” value in the series on E. coli is recorded as 100 ppm. Further, the “minimum bactericidal concentration, S. aureus” value in the series with S. aureus was 10 ppm. The “minimum bactericidal concentration, MRSA” value in the series with MRSA was 1,000 ppm. Besides, in the series on B. subtilis (spore), the “minimum bactericidal concentration, B. subtilis (spore)” value is listed as 1,000 ppm. The “minimum bactericidal concentration, A. niger” value with A. niger was >10,000 ppm.

`CCO` [EtOH, Absolute Ethyl Alcohol]: the “minimum bactericidal concentration, E. coli” value with E. coli is recorded as 500,000 ppm. For the same molecule, the “minimum bactericidal concentration, S. aureus” value in the series with S. aureus is reported as 500,000 ppm. Moreover, the “minimum bactericidal concentration, MRSA” value in the series on MRSA is recorded as 500,000 ppm. The “minimum bactericidal concentration, B. subtilis (spore)” value in the series on B. subtilis (spore) was 500,000 ppm. In addition, in the series on A. niger, the “minimum bactericidal concentration, A. niger” value is 500,000 ppm.

Regarding `[O-][Cl+]O` [chlorite ions], the “half-life for the elimination from the plasma” value in series [3] is listed as “less than half that of hypochlorite”. In [4], the “adverse effects in human volunteers” value is reported as “no adverse effects”.

`Oc1ccccc1` [PN, Phenol]: the “minimum bactericidal concentration, E. coli” value with E. coli is reported as 10,000 ppm. Moreover, the “minimum bactericidal concentration, S. aureus” value with S. aureus is reported as >10,000 ppm. In the series on MRSA, the “minimum bactericidal concentration, MRSA” value is on record as >10,000 ppm. The “minimum bactericidal concentration, B. subtilis (spore)” value in the series with B. subtilis (spore) was >10,000 ppm. Further, the “minimum bactericidal concentration, A. niger” value in the series on A. niger is >10,000 ppm.
